In PubChem BioAssay (NCI):
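All cell lines were grown in 96-well plates and treated with compound for 48 hours. At the GI50, growth is halved. TGI: total growth inhibition.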

Experiments:
Test in all cases: NCI tumour cell line growth inhibition, 48 h
[1] = test system: LOX IMVI melanoma
[2] = test system: RXF 393 renal
[3] = test system: SK-MEL-5 melanoma
[4] = test system: T-47D breast
[5] = test system: OVCAR-3 ovarian
[6] = test system: NCI-H23 lung
[7] = test system: HCC-2998 colon
[8] = test system: NCI-H460 lung
[9] = test system: HL-60(TB) leukemia
[10] = test system: K-562 leukemia

Row | SMILES | TGI [1] | TGI [2] | TGI [3] | TGI [4] | TGI [5] | TGI [6] | TGI [7] | TGI [8] | TGI [9] | TGI [10] | GI50 [2] | GI50 [8] | GI50 [3] | GI50 [4] | GI50 [9] | GI50 [5] | GI50 [10] | GI50 [6] | GI50 [7]
1 | NC1CC=C(COC(=O)C(O)(c2ccccc2)C2CC2)CC1 (configuration not stated) | > 100 µM | > 100 µM | > 100 µM | > 100 µM | > 100 µM | > 100 µM | > 100 µM | – | – | – | – | – | – | – | – | – | – | – | –
2 | Cc1cc(S(=O)(=O)/N=C(/NN)NNc2cccc(C(F)(F)F)n2)c(S)cc1Cl | 39.7 µM | 57.2 µM | 37.9 µM | 40.7 µM | 62.7 µM | – | 31.2 µM | 72.8 µM | 71.6 µM | 82.6 µM | – | – | – | – | – | – | – | – | –
3 | O=c1c2ccccc2nc(N/N=C/c2ccccc2O)n1-c1ccccc1 | > 100 µM | > 100 µM | > 100 µM | – | 17.2 µM | > 100 µM | > 100 µM | > 100 µM | 8.07 µM | > 100 µM | – | – | – | – | – | – | – | – | –
4 | Cc1ccc(CCC(=O)C(=O)O)s1 | – | – | > 100 µM | – | > 100 µM | > 100 µM | > 100 µM | > 100 µM | > 100 µM | > 100 µM | – | – | – | – | – | – | – | – | –
5 | CNc1ncnc2c1cnn2Cc1cn(COCC(O)CO)nn1 (configuration not stated) | > 100 µM | – | > 100 µM | > 100 µM | > 100 µM | > 100 µM | > 100 µM | – | > 100 µM | – | – | – | – | – | – | – | – | – | –
6 | Cc1ccc(N=C2C(=Nc3ccc(C)cc3)N(c3ccc(C)cc3)C(=S)N2C(=O)c2ccccc2)cc1 | – | > 100 µM | > 100 µM | > 100 µM | > 100 µM | > 100 µM | > 100 µM | > 100 µM | – | > 100 µM | – | – | – | – | – | – | – | – | –
7 | COc1ccc(C2=NN=C3C(c4ccccc4)=Nc4ccccc4N3C2)cc1 | > 100 µM | 51.8 µM | > 100 µM | – | 6.52 µM | > 100 µM | > 100 µM | > 100 µM | 38.5 µM | > 100 µM | – | – | – | – | – | – | – | – | –
8 | N#CC(C#N)=C1C(=O)NC(N)=C1C#N | > 100 µM | > 100 µM | > 100 µM | > 100 µM | – | > 100 µM | > 100 µM | > 100 µM | > 100 µM | > 100 µM | – | – | – | – | – | – | – | – | –
9 | O=c1oc2ccccc2c(O)c1C(C/C(CCN1CCCC1)=N\Nc1ccccc1)c1ccccc1 (configuration not stated) | > 100 µM | 93 µM | > 100 µM | – | > 100 µM | > 100 µM | > 100 µM | > 100 µM | 60 µM | > 100 µM | – | – | – | – | – | – | – | – | –
10 | CSc1scc2c1/C(=N/NC(N)=O)CCC2 | > 100 µM | – | > 100 µM | > 100 µM | > 100 µM | > 100 µM | > 100 µM | > 100 µM | – | > 100 µM | – | – | – | – | – | – | – | – | –
11 | [N-]=[N+]=Nc1c([N+](=O)[O-])c(=O)n2c3c(cccc13)CCC2 | 28.9 µM | – | 30.3 µM | 26.3 µM | 32.5 µM | 43.6 µM | 34.4 µM | 35.1 µM | 4.56 µM | 3.84 µM | – | – | – | – | – | – | – | – | –
12 | COC(=O)c1c(O)ccc2c1c1c(n2Cc2ccccc2)C(=O)c2ccccc2C1 | 69.5 µM | 60 µM | > 100 µM | – | > 100 µM | > 100 µM | – | > 100 µM | > 100 µM | 46 µM | – | – | – | – | – | – | – | – | –
13 | NC(N)=NCCCC(NC(=O)OCCCCn1ccc(N)nc1=O)C(=O)O (configuration not stated) | > 100 µM | > 100 µM | – | > 100 µM | > 100 µM | > 100 µM | > 100 µM | > 100 µM | > 100 µM | > 100 µM | – | – | – | – | – | – | – | – | –
14 | CC1(C)N=C(c2ccccn2)C(c2ccccn2)=NC1(C)C | > 100 µM | > 100 µM | > 100 µM | – | > 100 µM | – | > 100 µM | > 100 µM | > 100 µM | > 100 µM | – | – | – | – | – | – | – | – | –
15 | CC(=O)OC1COC(Nc2nc(N)n(C)c(=O)c2N=O)C(OC(C)=O)C1OC(C)=O (configuration not stated) | > 10 µM | > 10 µM | > 10 µM | > 10 µM | > 10 µM | > 10 µM | > 10 µM | > 10 µM | > 10 µM | – | – | – | – | – | – | – | – | – | –
16 | O=c1[nH]c(=S)c2cc3c(=S)[nH]c(=O)n(CCO)c3nc2n1CCO | > 100 µM | > 100 µM | > 100 µM | > 100 µM | > 100 µM | > 100 µM | > 100 µM | > 100 µM | – | > 100 µM | – | – | – | – | – | – | – | – | –
17 | COc1cc(Br)c(CC2C3=C(CCN2C(=O)C2CCC2)CC(=O)CC3)cc1O (configuration not stated) | > 100 µM | – | > 100 µM | 71.8 µM | 57 µM | 51.9 µM | 92.9 µM | > 100 µM | 36.9 µM | 81.3 µM | – | – | – | – | – | – | – | – | –
18 | COc1ccc(-c2nn(-c3ccc(NC(=O)Nc4ccc(Cl)c(C(F)(F)F)c4)cc3)cc2-c2ccncc2)cc1Cl | – | 2.19 µM | 2.82 µM | 7.73 µM | 6.14 µM | 8.17 µM | 7.97 µM | 3.36 µM | 5.75 µM | 8.55 µM | 0.74 µM | 1.4 µM | 1.5 µM | 2.72 µM | 2.13 µM | 1.67 µM | 1.25 µM | 1.77 µM | 2.19 µM
19 | C=CCC(C(=O)Nc1cccc2[nH]cnc12)C(=O)OCC (configuration not stated) | > 100 µM | – | – | > 100 µM | > 100 µM | – | > 100 µM | > 100 µM | > 100 µM | > 100 µM | – | – | – | – | – | – | – | – | –
20 | CC(=O)/C(=C/N1CCNC1=S)C(=O)Nc1ccccc1C | > 100 µM | > 100 µM | > 100 µM | > 100 µM | > 100 µM | > 100 µM | > 100 µM | > 100 µM | – | > 100 µM | – | – | – | – | – | – | – | – | –
21 | CN1C/C(=C\C=C\c2ccccc2)C(=O)/C(=C/C=C/c2ccccc2)C1 | > 100 µM | > 100 µM | > 100 µM | – | > 100 µM | > 100 µM | > 100 µM | > 100 µM | – | > 100 µM | – | – | – | – | – | – | – | – | –
22 | Brc1ccc2c(-c3csc(-c4c[nH]c5ccccc45)n3)c[nH]c2c1 | 29.6 µM | 38.8 µM | 28.6 µM | 66.4 µM | 29.1 µM | 28.2 µM | 30.9 µM | 34.4 µM | – | 37.5 µM | – | – | – | – | – | – | 18.8 µM | 14.5 µM | –
23 | O=C1c2ccccc2C(=O)c2[nH]c(Cc3ccc(F)cc3)nc21 | – | 30.2 µM | – | – | 38.2 µM | – | 42.8 µM | 31.1 µM | 55.2 µM | > 100 µM | – | – | – | – | – | – | – | – | –
